Data reported in patent publication US12685311B2, “Environmentally friendly biocidal quaternized amine compound” (Baker Hughes Oilfield Operations LLC, priority 2023, dated 2026).

Each compound was assayed on microbial population (oilfield produced waters containing a range of microbes) (assay: ATP quantification of oilfield produced waters after biocide treatment). Details: 400 ppm, after four hours, oilfield produced waters amended with nutrients, versus untreated control.
Assay type: cell-based
Procedure: Laboratory tests were performed to observe the environmentally friendly biocide of one embodiment for its ability to reduce microbial populations. The performance of the environmentally friendly biocide was further compared with that of two non-biodegradable biocidal quaternary amine compounds: alkyldimethylbenxylammonium chloride (ADBAC) and didecyldimethylammonium chloride (DDAC).
Test bottles were prepared with oilfield produced waters amended with nutrients containing a range of microbes. These bottles were treated with 400 ppm of either di(dimethyl(alkyl)ammonium chloride) ethanoyloxy-oxo, ADBAC, or DDAC, with one test bottle left as an untreated control. After four hours, ATP quantification and serial dilution using Modified Postgate's B media were performed for the various test bottles.

Question: With “di(dimethyl(alkyl)ammonium chloride) ethanoyloxy-oxo” as the compound, how does the “reduction of the microbial population via ATP” value (from here on “reduction”) read?
Answer: 96.79%

Question: How did the “reduction” value turn out when `CCCCCCCCCC[N+](C)(C)CCCCCCCCCC.[Cl-]` [DDAC, didecyldimethylammonium chloride] was run?
Answer: 99.06%

Question: For “alkyldimethylbenxylammonium chloride [ADBAC]”, which “reduction” value is on record?
Answer: 99.16%
